Reference: patent EP1094066A2, “Condensed heterocyclic glutamic acid derivatives as antiproliferative agents” (AGOURON PHARMACEUTICALS, INC., priority 1993, dated 1994)

System: L1210 murine leukemia (ATCC CCL 219) cell line
Assay: Cellular growth inhibition, MTT-tetrazolium reduction assay
Type: cell-based
Conditions: Mus musculus, 72 h; L1210 cells, 3 days of continuous exposure
Protocol: Cellular growth in the presence of the compounds according to the present invention was assessed using the L1210 murine leukemia (ATCC CCL 219) cell line. The cell line was maintained in RPMI 1640 medium containing 5% heat-inactivated fetal bovine serum without antibiotics.
Water insoluble derivatives were dissolved in DMSO and diluted to a final concentration of 0.5% solvent in cell cultures.

Nc1nc2c(c(=O)[nH]1)SC(CCc1ccc(C(=O)N[C@@H](CCC(=O)O)C(=O)O)cc1)CN2 (stereo partly shown) [(14), 2-[4-[2-(2-Amino-4-oxo-4,6,7,8-tetrahydro-3H-pyrimido[5,4-b][1,4]thiazin-6-yl)-ethyl]benzoylamino)pentanedioic acid]
IC50: 50 nM
